“And” between values parts separate entries of the source, which are not always exact repeats. Equal values may be shown once.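 Values below derive from 48-hour exposures of cells grown in 96-well plates, with endpoints linearly interpolated between the two concentrations bracketing the appropriate inhibition level. Abbreviation: GI50, concentration required for 50% inhibition of growth. TGI is the concentration that stops growth completely.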
Tests used:
Assay in all cases: NCI tumour cell line growth inhibition, 48 h
786-0 renal = test system: 786-0 renal
BT-549 breast = test system: BT-549 breast
CAKI-1 renal = test system: CAKI-1 renal
HOP-62 NSCLC = test system: HOP-62 NSCLC
MOLT-4 leukemia = test system: MOLT-4 leukemia
SK-OV-3 ovarian = test system: SK-OV-3 ovarian
A549 NSCLC = test system: A549 NSCLC
IGROV1 ovarian = test system: IGROV1 ovarian
OVCAR-8 ovarian = test system: OVCAR-8 ovarian
UACC-257 melanoma = test system: UACC-257 melanoma

Row | SMILES | GI50 (786-0 renal) [µM] | TGI (786-0 renal) | GI50 (BT-549 breast) [µM] | TGI (BT-549 breast) [µM] | GI50 (CAKI-1 renal) [µM] | TGI (CAKI-1 renal) | GI50 (HOP-62 NSCLC) [µM] | TGI (HOP-62 NSCLC) | GI50 (MOLT-4 leukemia) [µM] | TGI (MOLT-4 leukemia) [µM] | GI50 (SK-OV-3 ovarian) [µM] | TGI (SK-OV-3 ovarian) [µM] | GI50 (A549 NSCLC) [µM] | TGI (A549 NSCLC) | GI50 (IGROV1 ovarian) [µM] | TGI (IGROV1 ovarian) | GI50 (OVCAR-8 ovarian) [µM] | TGI (OVCAR-8 ovarian) [µM] | GI50 (UACC-257 melanoma) | TGI (UACC-257 melanoma) [µM]
1 | Cc1cn(Cc2ccc(C34CC5CC(CC(C5)C3)C4)c(O)c2)c(=O)[nH]c1=O | 12.6 | 27 µM | 8.7 | 20.8 | 10.1 | 23.3 µM | 12.9 | 25.6 µM | 7.5 | 27.5 | 19.2 | 44.3 | – | – | – | – | – | – | – | –
2 | COc1ccc(/C=C2/SC(Nc3nc(-c4nc(NC5=NC(=O)/C(=C\c6ccc(OC)cc6)S5)sc4C)c(C)s3)=NC2=O)cc1 | 1.07 | 4.18 µM | 2.23 | 22.2 | 0.368 | 3.16 µM | 0.485 | 4.92 µM | 8.87 | > 50 | – | – | 1.14 | 17.2 µM | 5.26 | > 50 µM | 1.71 | 16.7 | 2.22 µM | 15.4
3 | O=C(NCC1CCCO1)c1ccc(NC2=C(Cl)C(=O)N(Cc3ccccc3)C2=O)cc1 (stereo not given) | 15.2 | 28.6 µM | 16.7 | 33.9 | 1.79 | 3.34 µM | – | – | 4.49 | > 100 | 18.6 | 36.6 | 19.1 | 50.5 µM | 2.93 | 7.52 µM | 16.7 | 54.6 | 17 µM | 45.6
4 | N#Cc1cnc(Nc2cc(NC[C@H]3CNCCO3)c(C(F)(F)F)cn2)cn1 | 0.668 | 29 µM | 5.62 | 32 | – | – | 6.54 | 36.8 µM | 3.61 | 55.2 | 3.62 | 38.9 | 20.6 | > 100 µM | 5.57 | 70.6 µM | 3.69 | 93 | 19.3 µM | 45.8
5 | c1ccc(CNCCN(CCNCc2ccccn2)Cc2ccc3ccccc3c2)nc1 | 2.34 | 8.15 µM | 2.87 | 10.9 | – | – | 2.17 | 6.69 µM | 2.58 | 7.5 | 1.94 | 5.11 | 2.33 | 5.38 µM | 2.3 | 7.5 µM | 2.27 | 6.29 | 2.16 µM | 4.69
6 | Nc1nc(/C=C\c2ccccc2)nc(N2CCN(c3ccccc3)CC2)n1 | 16.2 | 34.8 µM | 45 | > 100 | 15.6 | 43.6 µM | 23.9 | 86.3 µM | 36.8 | > 100 | – | – | 31.5 | > 100 µM | 22.9 | 69.8 µM | 35.4 | > 100 | 29.1 µM | 68.5
7 | O=C1/C(=C/c2ccc(Cl)cc2)CNC/C1=C\c1ccc(Cl)cc1 | – | 4.69 µM and 2.77 µM | – | 8.41 | – | 5.98 µM and 3.82 µM | – | 12.5 µM and 7.03 µM | – | – | – | > 100 | – | > 100 µM and 27.4 µM | – | 4.15 µM and 3.49 µM | – | – | 1.78 µM and 7.7 µM | –
